Source: ChEMBL document CHEMBL1201862, “PubChem BioAssay data set” (2004)
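A five-concentration, 48-hour dose response in 96-well plates underlies each endpoint, interpolated linearly between surrounding concentrations. GI50 = concentration required for 50% inhibition of growth.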 The source made the active and inactive calls. No stated cut-off is given here; in the data, active = GI50 up to about 1.1 µM and inactive = higher.

What was measured:
Experiment in all cases: growth of human tumour cells (NCI), 48 h
MDA-MB-435 = system: MDA-MB-435
CCRF-CEM = system: CCRF-CEM
TK-10 = system: TK-10
M14 = system: M14
OVCAR-5 = system: OVCAR-5
A498 = system: A498
SW-620 = system: SW-620
SF-295 = system: SF-295
HOP-92 = system: HOP-92
MOLT-4 = system: MOLT-4
OVCAR-4 = system: OVCAR-4
OVCAR-8 = system: OVCAR-8
NCI-H226 = system: NCI-H226
786-0 = system: 786-0
A549 = system: A549
NCI-H522 = system: NCI-H522
SNB-75 = system: SNB-75
SF-539 = system: SF-539
HL-60 = system: HL-60
DU-145 = system: DU-145

Measured: GI50

NC(=O)CC(/N=C1\C(=O)OC(C(O)CO)\C1=N/C(CC(N)=O)C(=O)O)C(=O)O (stereo not given)
inactive: MDA-MB-435 > 100 µM | CCRF-CEM > 100 µM | TK-10 > 100 µM | M14 > 100 µM | OVCAR-5 > 10 µM | A498 > 100 µM | SW-620 > 100 µM | SF-295 > 100 µM | HOP-92 > 100 µM | MOLT-4 > 100 µM | OVCAR-4 > 100 µM | OVCAR-8 > 100 µM | NCI-H226 > 100 µM | 786-0 > 100 µM | A549 > 100 µM | NCI-H522 > 100 µM | SNB-75 > 100 µM | SF-539 > 100 µM | HL-60 > 100 µM | DU-145 > 100 µM

O=C(NCCNCCCNC(=O)c1cc(-c2ccccc2)nc2ccccc12)c1cccc(OCc2ccccc2)c1OCc1ccccc1
inactive: MDA-MB-435 1.68 µM | CCRF-CEM 1.79 µM | TK-10 1.77 µM | M14 1.65 µM | OVCAR-5 1.91 µM | A498 1.6 µM | SW-620 1.77 µM | SF-295 1.64 µM | HOP-92 1.53 µM | MOLT-4 1.85 µM | OVCAR-4 1.64 µM | OVCAR-8 1.71 µM | NCI-H226 1.69 µM | 786-0 1.71 µM | A549 1.74 µM | NCI-H522 1.73 µM | SNB-75 1.87 µM | SF-539 1.77 µM | HL-60 1.6 µM | DU-145 1.81 µM

Cc1ccc2c(c1)/C(=N/Nc1ccccc1[N+](=O)[O-])C(=O)N2
inactive: MDA-MB-435 > 100 µM | CCRF-CEM 87.1 µM | TK-10 3.24 µM | M14 81.5 µM | OVCAR-5 10.9 µM | A498 4.18 µM | SW-620 35.3 µM | SF-295 14.5 µM | HOP-92 2.92 µM | MOLT-4 > 100 µM | OVCAR-4 2.37 µM | OVCAR-8 3.45 µM | NCI-H226 8.41 µM | 786-0 2.11 µM | A549 27.9 µM | NCI-H522 2.31 µM | SNB-75 5.33 µM | SF-539 2.11 µM | HL-60 > 100 µM | DU-145 25 µM

COc1cc(/C=C/C(=O)Oc2ccc(NC(C)=O)cc2)ccc1C(=O)OCc1ccccc1
inactive: MDA-MB-435 > 100 µM | CCRF-CEM 64.3 µM | TK-10 > 95.9 µM | M14 > 100 µM | OVCAR-5 > 100 µM | A498 60.3 µM | SW-620 > 100 µM | SF-295 40.6 µM | HOP-92 74.3 µM | MOLT-4 > 85.3 µM | OVCAR-4 > 96.4 µM | OVCAR-8 > 88.9 µM | NCI-H226 > 100 µM | 786-0 39.6 µM | A549 > 97.1 µM | NCI-H522 > 85.9 µM | SNB-75 20 µM | SF-539 36.3 µM | HL-60 > 72.3 µM | DU-145 > 77.3 µM

CCCCCCC/C=C1\CCC(CN(C)C)C1=O (stereo not given)
inactive: MDA-MB-435 5.66 µM | CCRF-CEM 3.03 µM | TK-10 7.48 µM | M14 9.71 µM | OVCAR-5 19.8 µM | A498 19.9 µM | SW-620 6.19 µM | SF-295 16.3 µM | HOP-92 17.3 µM | MOLT-4 2.47 µM | OVCAR-4 16.6 µM | OVCAR-8 9.77 µM | NCI-H226 22.4 µM | 786-0 1.76 µM | A549 22.6 µM | NCI-H522 5.48 µM | SNB-75 18.5 µM | SF-539 16.6 µM | HL-60 3.02 µM | DU-145 14.7 µM

CC1CCC2(CC1)NC1=C(CC(C)CC1)C1=C2CC(C)CC1 (stereo not given)
inactive: MDA-MB-435 > 10 µM | CCRF-CEM 18.1 µM | TK-10 26.5 µM | M14 18.5 µM | OVCAR-5 18.7 µM | A498 34 µM | SW-620 18.9 µM | SF-295 18.1 µM | HOP-92 18.3 µM | MOLT-4 7.14 µM | OVCAR-4 22.2 µM | OVCAR-8 23 µM | NCI-H226 16.7 µM | 786-0 19.5 µM | A549 36.8 µM | NCI-H522 19.3 µM | SNB-75 19.1 µM | SF-539 22.1 µM | HL-60 14.4 µM | DU-145 38.3 µM

CN(C)c1nc2sc3c(c2c(=O)o1)CCCC3
inactive: MDA-MB-435 31.5 µM | CCRF-CEM 39.4 µM | TK-10 > 100 µM | M14 40.1 µM | OVCAR-5 60.1 µM | A498 16 µM | SW-620 54.8 µM | SF-295 31.6 µM | HOP-92 36.9 µM | MOLT-4 52.2 µM | OVCAR-4 27.9 µM | OVCAR-8 31.8 µM | NCI-H226 15.3 µM | 786-0 45.4 µM | A549 29.2 µM | NCI-H522 25.4 µM | SNB-75 30.1 µM | SF-539 43.3 µM | HL-60 27 µM | DU-145 27.8 µM
